# Experimental data from PubChem BioAssay AID2060605 (Molecular Pharmacology Branch, DTP, NCI, 2025).
# pIC50: −log10 of the molar value.
# System: 947758-054-R-J2-PDC spheroid growth, percent test/control
# Assay: Anticancer human tumor 947758-054-R-J2-PDC patient-derived colon adenocarcinoma cell line growth inhibition [CLK]
# Details: spheroids with HUVEC and MSC; for pIC50: curve of first compound; for viability, T/C: stronger effect = lower value
# Summary of the method: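 Patient-derived tumor cells grown as complex spheroids with HUVEC endothelial cells and mesenchymal stem cells, treated with drug combinations. Concentrations descend in half-log steps from near clinical Cmax, or from 10 microM if Cmax unknown.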
# 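Note: spheroids exposed to compounds for one week before readout.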
# 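Throughout, for viability, T/C: 100% = DMSO vehicle control wells.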
structure (smiles),measurement,setting,value
C=CC(=O)Nc1cc(Nc2nccc(-c3cn(C)c4ccccc34)n2)c(OC)cc1N(C)CCN(C)C + CN1CCN(c2cc(C(=O)Nc3cc4cc(-c5cnn(C)c5)ccc4cn3)ccn2)CC1,pIC50,second compound 0.0316 µM,< 6.52
same,pIC50,second compound 0.1 µM,< 6.52
same,pIC50,second compound 0.316 µM,> 9.02
same,pIC50,second compound 1 µM,> 9.02
same,pIC50,second compound 3.16 µM,> 9.02
same,pIC50,second compound 10 µM,> 9.02
same,"viability, T/C","second compound 0.0316 µM, first compound 0.000949 µM",102%
same,"viability, T/C","second compound 0.0316 µM, first compound 0.003 µM",111%
same,"viability, T/C","second compound 0.0316 µM, first compound 0.00949 µM",100%
same,"viability, T/C","second compound 0.0316 µM, first compound 0.03 µM",81.4%
same,"viability, T/C","second compound 0.0316 µM, first compound 0.0949 µM",116%
same,"viability, T/C","second compound 0.0316 µM, first compound 0.3 µM",137%
same,"viability, T/C","second compound 0.1 µM, first compound 0.000949 µM",157%
same,"viability, T/C","second compound 0.1 µM, first compound 0.003 µM",163%
same,"viability, T/C","second compound 0.1 µM, first compound 0.00949 µM",152%
same,"viability, T/C","second compound 0.1 µM, first compound 0.03 µM",179%
same,"viability, T/C","second compound 0.1 µM, first compound 0.0949 µM",120%
same,"viability, T/C","second compound 0.1 µM, first compound 0.3 µM",106%
same,"viability, T/C","second compound 0.316 µM, first compound 0.000949 µM",4.91%
same,"viability, T/C","second compound 0.316 µM, first compound 0.003 µM",4.6%
same,"viability, T/C","second compound 0.316 µM, first compound 0.00949 µM",2.55%
same,"viability, T/C","second compound 0.316 µM, first compound 0.03 µM",3.23%
same,"viability, T/C","second compound 0.316 µM, first compound 0.0949 µM",2.33%
same,"viability, T/C","second compound 0.316 µM, first compound 0.3 µM",3.21%
same,"viability, T/C","second compound 1 µM, first compound 0.000949 µM",0.14%
same,"viability, T/C","second compound 1 µM, first compound 0.003 µM",0.99%
same,"viability, T/C","second compound 1 µM, first compound 0.00949 µM",0.15%
same,"viability, T/C","second compound 1 µM, first compound 0.03 µM",0.13%
same,"viability, T/C","second compound 1 µM, first compound 0.0949 µM",0.11%
same,"viability, T/C","second compound 1 µM, first compound 0.3 µM",0.14%
same,"viability, T/C","second compound 3.16 µM, first compound 0.000949 µM",0.4%
same,"viability, T/C","second compound 3.16 µM, first compound 0.003 µM",1.42%
same,"viability, T/C","second compound 3.16 µM, first compound 0.00949 µM",1.1%
same,"viability, T/C","second compound 3.16 µM, first compound 0.03 µM",0.23%
same,"viability, T/C","second compound 3.16 µM, first compound 0.0949 µM",2.07%
same,"viability, T/C","second compound 3.16 µM, first compound 0.3 µM",1.52%
same,"viability, T/C","second compound 10 µM, first compound 0.000949 µM",0.82%
same,"viability, T/C","second compound 10 µM, first compound 0.003 µM",0.35%
same,"viability, T/C","second compound 10 µM, first compound 0.00949 µM",1%
same,"viability, T/C","second compound 10 µM, first compound 0.03 µM",1.25%
same,"viability, T/C","second compound 10 µM, first compound 0.0949 µM",0.32%
same,"viability, T/C","second compound 10 µM, first compound 0.3 µM",0.26%
Nc1ccccc1NC(=O)c1ccc(CNC(=O)OCc2cccnc2)cc1 + CN1CCN(c2cc(C(=O)Nc3cc4cc(-c5cnn(C)c5)ccc4cn3)ccn2)CC1,pIC50,second compound 0.0316 µM,5.34
same,pIC50,second compound 0.1 µM,5.57
same,pIC50,second compound 0.316 µM,> 7.50
same,pIC50,second compound 1 µM,> 7.50
same,pIC50,second compound 3.16 µM,> 7.50
same,pIC50,second compound 10 µM,> 7.50
same,"viability, T/C","second compound 0.0316 µM, first compound 0.0316 µM",133%
same,"viability, T/C","second compound 0.0316 µM, first compound 0.1 µM",136%
same,"viability, T/C","second compound 0.0316 µM, first compound 0.316 µM",153%
same,"viability, T/C","second compound 0.0316 µM, first compound 1 µM",166%
same,"viability, T/C","second compound 0.0316 µM, first compound 3.16 µM",70.3%
same,"viability, T/C","second compound 0.0316 µM, first compound 10 µM",8.87%
same,"viability, T/C","second compound 0.1 µM, first compound 0.0316 µM",188%
same,"viability, T/C","second compound 0.1 µM, first compound 0.1 µM",178%
same,"viability, T/C","second compound 0.1 µM, first compound 0.316 µM",190%
same,"viability, T/C","second compound 0.1 µM, first compound 1 µM",129%
same,"viability, T/C","second compound 0.1 µM, first compound 3.16 µM",39.4%
same,"viability, T/C","second compound 0.1 µM, first compound 10 µM",4.71%
same,"viability, T/C","second compound 0.316 µM, first compound 0.0316 µM",2.88%
same,"viability, T/C","second compound 0.316 µM, first compound 0.1 µM",6%
same,"viability, T/C","second compound 0.316 µM, first compound 0.316 µM",2.2%
same,"viability, T/C","second compound 0.316 µM, first compound 1 µM",0.82%
same,"viability, T/C","second compound 0.316 µM, first compound 3.16 µM",1.3%
same,"viability, T/C","second compound 0.316 µM, first compound 10 µM",0.07%
same,"viability, T/C","second compound 1 µM, first compound 0.0316 µM",0.15%
same,"viability, T/C","second compound 1 µM, first compound 0.1 µM",0.18%
same,"viability, T/C","second compound 1 µM, first compound 0.316 µM",0.2%
same,"viability, T/C","second compound 1 µM, first compound 1 µM",0.12%
same,"viability, T/C","second compound 1 µM, first compound 3.16 µM",0.57%
same,"viability, T/C","second compound 1 µM, first compound 10 µM",2.05%
same,"viability, T/C","second compound 3.16 µM, first compound 0.0316 µM",0.21%
same,"viability, T/C","second compound 3.16 µM, first compound 0.1 µM",0.63%
same,"viability, T/C","second compound 3.16 µM, first compound 0.316 µM",0.29%
same,"viability, T/C","second compound 3.16 µM, first compound 1 µM",0.28%
same,"viability, T/C","second compound 3.16 µM, first compound 3.16 µM",0.32%
same,"viability, T/C","second compound 3.16 µM, first compound 10 µM",2.87%
same,"viability, T/C","second compound 10 µM, first compound 0.0316 µM",0.31%
same,"viability, T/C","second compound 10 µM, first compound 0.1 µM",0.32%
same,"viability, T/C","second compound 10 µM, first compound 0.316 µM",1.85%
same,"viability, T/C","second compound 10 µM, first compound 1 µM",0.43%
same,"viability, T/C","second compound 10 µM, first compound 3.16 µM",0.45%
same,"viability, T/C","second compound 10 µM, first compound 10 µM",2.2%
